The results in this text go back to patent US7259171B2, “Di and trifluoro-triazolo-pyridines anti-inflammatory compounds” (Pfizer Inc., priority 2002, dated 2007).

What is called melting point is the temperature of the solid-liquid transition. Turning to `CC(C)c1nnc2ccc(-c3ocnc3-c3c(F)cccc3F)cn12` [Example 1, 6-[4-(2,6-Difluoro-phenyl)-oxazol-5-yl]-3-isopropyl-[1,2,4]triazolo[4,3-a]pyridine], the melting point is 175.7 to 176.2 °C.
